Reference: ChEMBL document CHEMBL1201862, “PubChem BioAssay data set” (2004)
Active and inactive are the calls of the source.

Tests used:
[1] = target: T1, Dual specificity protein phosphatase 3 (Homo sapiens, UniProt P51452); assay: VHR1 phosphatase inhibitors, primary screen, biochemical, absorbance, uHTS (AID 1654)
[2] = target: Dual specificity protein phosphatase 6 (Rattus norvegicus, UniProt Q64346); assay: MKP-3 phosphatase inhibitors, primary screen, biochemical, rat enzyme, in vitro (AID 425)
[3] = target: T1, Dual specificity protein phosphatase 3; assay: VHR1 phosphatase inhibitors, biochemical (AID 1878)
DLD-1 [4] = assay: cytotoxicity in DLD-1 colorectal cells, late-stage follow-up, cytotoxicity control for KLF5 inhibitor project, cell-based, luminescence, round 1 (AID 485338); format: functional; settings: Homo sapiens
DLD-1 [5] = assay: reduction of KLF5 protein levels, late-stage follow-up, orthogonal assay for KLF5 inhibitor project, western blot, chemiluminescence, DLD-1 cells, titration (AID 485336); format: functional, cell-based; settings: Homo sapiens
[6] = Luminescence-based counterscreen assay for KLF5 inhibitors: dose response cell-based high throughput screening assay to identify cytotoxic compounds using the IEC-6 intestinal epithelial cell line. [Related pubchem assays: 1700 (Primary screen.), 1834 (Confirmation screen.), 1858 (Summary AID.), 1905 (Counterscreen.)]; format: functional
Vero [7] = assay: cells; format: functional, cell-based; settings: Chlorocebus sabaeus
[8] = Luminescence Cell-Based Dose Response HTS to Identify Inhibitors of 5'UTR Stem-Loop Driven Prion Protein mRNA Translation in H4 Neuroglioblastoma Cells. [Related pubchem assays: 1827 (Project Summary), 1813 (Primary HTS)]; format: functional
Vero [9] = assay: host cell cytotoxicity of antiviral hits, dose response, cytotoxicity control for West Nile virus antiviral project, secondary assay (AID 1650); format: functional; settings: Chlorocebus sabaeus
[10] = inhibitors of firefly luciferase expression or activity, dose response, H4 neuroglioma cells, luminescence (AID 1990); format: functional, cell-based
[11] = inhibitors of SNCA 5'UTR-driven reporter translation, confirmation, H4 neuroglioma cells, luminescence (AID 1988); format: functional, cell-based
Vero [12] = assay: cells; format: functional; settings: Chlorocebus sabaeus
[13] = target: Intestinal-type alkaline phosphatase (Homo sapiens, UniProt P09923); assay: inhibition of human intestinal alkaline phosphatase – biochemical, dose response (AID 488876); format: functional
[14] = target: T2, Alkaline phosphatase, tissue-nonspecific isozyme (Homo sapiens, UniProt P05186); assay: TNAP enzyme inhibition by screening hits, dose response, selectivity assay for mouse IAP inhibitor project, biochemical, human TNAP, uHTS hits (AID 488906); format: functional
T2 sequence (P05186 whole entry): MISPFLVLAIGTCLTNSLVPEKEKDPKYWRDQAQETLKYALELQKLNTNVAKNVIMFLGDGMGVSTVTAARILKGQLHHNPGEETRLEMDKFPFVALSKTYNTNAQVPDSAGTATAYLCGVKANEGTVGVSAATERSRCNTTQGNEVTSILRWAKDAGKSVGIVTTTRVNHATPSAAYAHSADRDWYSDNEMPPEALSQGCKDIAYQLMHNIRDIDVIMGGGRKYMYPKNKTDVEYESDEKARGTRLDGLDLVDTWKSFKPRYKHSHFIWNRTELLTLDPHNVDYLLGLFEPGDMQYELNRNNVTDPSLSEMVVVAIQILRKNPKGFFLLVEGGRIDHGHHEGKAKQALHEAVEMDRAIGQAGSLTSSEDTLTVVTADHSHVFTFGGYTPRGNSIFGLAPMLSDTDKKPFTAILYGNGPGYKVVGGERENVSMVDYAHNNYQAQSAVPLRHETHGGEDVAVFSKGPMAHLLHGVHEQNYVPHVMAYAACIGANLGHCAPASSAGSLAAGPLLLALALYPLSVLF

[15] = target: Intestinal-type alkaline phosphatase (Mus musculus, UniProt P24822); assay: PubChem AID 488785; format: functional
[16] = target: Glyceraldehyde-3-phosphate dehydrogenase (Homo sapiens, UniProt P04406)
Tumor necrosis factor = Tumor necrosis factor (Homo sapiens, UniProt P01375); assay: TNFa-triggered NF-kB activation inhibitors, SAR follow-up, cell-based, set 3 (AID 2801); format: functional
Bcl-2-related protein A1 [17] = target: T3, Bcl-2-related protein A1 (Mus musculus, UniProt Q07440); assay: Bfl-1 binding inhibitors, SAR follow-up, biochemical, fluorescence polarization (AID 1070)
T3 sequence (Q07440 whole entry): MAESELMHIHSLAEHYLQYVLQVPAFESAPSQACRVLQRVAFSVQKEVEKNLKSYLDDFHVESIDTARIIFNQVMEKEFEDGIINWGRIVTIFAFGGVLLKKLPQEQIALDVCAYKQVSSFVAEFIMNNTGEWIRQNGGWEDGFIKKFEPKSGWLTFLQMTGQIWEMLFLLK

[18] = target: Nucleotide-binding oligomerization domain-containing protein 1 (Homo sapiens, UniProt Q9Y239); assay: SAR analysis of compounds that inhibit NOD1 - Set 3. [Related pubchem assays (depositor defined):AID1566, AID1575, AID1578, AID1849, AID1852, AID2333, AID2335, AID2466]; format: functional
Bcl-2-related protein A1 [19] = target: T3, Bcl-2-related protein A1; assay: Bfl-1 inhibitors blocking BH3 peptide binding, confirmation, biochemical, TR-FRET, mouse Bfl-1 (AID 621);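 further: TR-FRET binding of GST-Bfl-1 to FITC-labelled Bid peptide via terbium antibody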
HEK293 = assay: SAR analysis of compounds that are cytotoxic to HEK293 - Set 3. [Related pubchem assays (depositor defined):AID1575, AID1578, AID1848, AID1849, AID2001, AID2333, AID2334, AID2335, AID2337, AID2469]; format: functional, cell-based; settings: Homo sapiens
[20] = target: Nucleotide-binding oligomerization domain-containing protein 2 (Homo sapiens, UniProt Q9HC29); assay: NOD2 signaling inhibitors, analog potency, SAR follow-up, cell-based, set 3 (AID 2799); format: functional
Nucleotide-binding oligomerization domain-containing protein 2, sequence (Q9HC29 whole entry, the tested form may be a part): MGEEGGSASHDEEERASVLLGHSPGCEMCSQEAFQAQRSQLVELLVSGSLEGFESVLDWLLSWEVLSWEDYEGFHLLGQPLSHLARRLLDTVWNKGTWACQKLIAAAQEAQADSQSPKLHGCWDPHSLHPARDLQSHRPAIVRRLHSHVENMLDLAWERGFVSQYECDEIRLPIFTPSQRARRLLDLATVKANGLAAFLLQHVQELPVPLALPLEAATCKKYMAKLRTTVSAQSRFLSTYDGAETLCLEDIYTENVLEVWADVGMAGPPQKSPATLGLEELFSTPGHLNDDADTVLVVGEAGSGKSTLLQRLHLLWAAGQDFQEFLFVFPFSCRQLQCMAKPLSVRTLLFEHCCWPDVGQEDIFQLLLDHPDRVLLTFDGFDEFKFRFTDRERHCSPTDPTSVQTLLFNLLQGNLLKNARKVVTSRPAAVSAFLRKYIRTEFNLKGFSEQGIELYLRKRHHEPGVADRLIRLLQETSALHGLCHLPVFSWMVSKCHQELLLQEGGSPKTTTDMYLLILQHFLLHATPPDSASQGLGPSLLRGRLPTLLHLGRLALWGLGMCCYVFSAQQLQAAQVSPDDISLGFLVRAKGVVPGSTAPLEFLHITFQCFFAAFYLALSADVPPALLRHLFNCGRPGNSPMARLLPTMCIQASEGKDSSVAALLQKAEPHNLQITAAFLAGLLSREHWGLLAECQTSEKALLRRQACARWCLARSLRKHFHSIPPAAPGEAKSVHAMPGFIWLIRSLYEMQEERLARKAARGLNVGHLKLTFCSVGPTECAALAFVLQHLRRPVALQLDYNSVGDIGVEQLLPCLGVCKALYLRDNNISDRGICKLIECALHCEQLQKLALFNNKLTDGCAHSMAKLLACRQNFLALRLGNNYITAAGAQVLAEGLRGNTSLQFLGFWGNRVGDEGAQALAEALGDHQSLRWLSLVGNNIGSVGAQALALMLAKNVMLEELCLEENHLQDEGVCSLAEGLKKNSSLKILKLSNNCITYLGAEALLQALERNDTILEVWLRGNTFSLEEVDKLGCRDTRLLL

T1 sequence (P51452 whole entry): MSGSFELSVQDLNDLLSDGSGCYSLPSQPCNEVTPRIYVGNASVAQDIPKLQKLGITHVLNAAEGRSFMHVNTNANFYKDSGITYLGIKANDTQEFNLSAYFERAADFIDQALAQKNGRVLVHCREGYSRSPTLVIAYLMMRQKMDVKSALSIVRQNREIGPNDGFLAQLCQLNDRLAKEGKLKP
Tumor necrosis factor, sequence (P01375 whole entry): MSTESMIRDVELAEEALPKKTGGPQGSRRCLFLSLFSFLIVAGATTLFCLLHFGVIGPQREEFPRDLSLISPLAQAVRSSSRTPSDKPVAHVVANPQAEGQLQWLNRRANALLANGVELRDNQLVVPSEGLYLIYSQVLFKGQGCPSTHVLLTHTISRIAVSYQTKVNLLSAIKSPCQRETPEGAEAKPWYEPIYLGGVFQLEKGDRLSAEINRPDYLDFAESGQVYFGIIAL
Intestinal-type alkaline phosphatase (Mus musculus, UniProt P24822), sequence (P24822 whole entry): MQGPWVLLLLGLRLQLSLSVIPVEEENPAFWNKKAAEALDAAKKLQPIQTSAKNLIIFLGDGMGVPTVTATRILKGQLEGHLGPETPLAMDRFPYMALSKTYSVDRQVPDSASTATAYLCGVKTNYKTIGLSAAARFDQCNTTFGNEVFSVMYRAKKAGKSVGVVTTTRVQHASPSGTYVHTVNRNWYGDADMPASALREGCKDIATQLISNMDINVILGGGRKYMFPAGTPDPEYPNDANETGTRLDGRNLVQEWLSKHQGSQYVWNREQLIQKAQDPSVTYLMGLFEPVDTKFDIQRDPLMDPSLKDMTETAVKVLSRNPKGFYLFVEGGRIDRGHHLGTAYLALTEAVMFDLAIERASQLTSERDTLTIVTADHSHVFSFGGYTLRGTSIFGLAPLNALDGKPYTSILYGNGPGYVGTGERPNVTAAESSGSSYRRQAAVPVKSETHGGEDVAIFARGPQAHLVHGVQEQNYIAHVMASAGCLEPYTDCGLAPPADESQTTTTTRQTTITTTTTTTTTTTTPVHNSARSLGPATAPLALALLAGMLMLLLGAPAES
Nucleotide-binding oligomerization domain-containing protein 1, sequence (Q9Y239 whole entry, the tested form may be a part): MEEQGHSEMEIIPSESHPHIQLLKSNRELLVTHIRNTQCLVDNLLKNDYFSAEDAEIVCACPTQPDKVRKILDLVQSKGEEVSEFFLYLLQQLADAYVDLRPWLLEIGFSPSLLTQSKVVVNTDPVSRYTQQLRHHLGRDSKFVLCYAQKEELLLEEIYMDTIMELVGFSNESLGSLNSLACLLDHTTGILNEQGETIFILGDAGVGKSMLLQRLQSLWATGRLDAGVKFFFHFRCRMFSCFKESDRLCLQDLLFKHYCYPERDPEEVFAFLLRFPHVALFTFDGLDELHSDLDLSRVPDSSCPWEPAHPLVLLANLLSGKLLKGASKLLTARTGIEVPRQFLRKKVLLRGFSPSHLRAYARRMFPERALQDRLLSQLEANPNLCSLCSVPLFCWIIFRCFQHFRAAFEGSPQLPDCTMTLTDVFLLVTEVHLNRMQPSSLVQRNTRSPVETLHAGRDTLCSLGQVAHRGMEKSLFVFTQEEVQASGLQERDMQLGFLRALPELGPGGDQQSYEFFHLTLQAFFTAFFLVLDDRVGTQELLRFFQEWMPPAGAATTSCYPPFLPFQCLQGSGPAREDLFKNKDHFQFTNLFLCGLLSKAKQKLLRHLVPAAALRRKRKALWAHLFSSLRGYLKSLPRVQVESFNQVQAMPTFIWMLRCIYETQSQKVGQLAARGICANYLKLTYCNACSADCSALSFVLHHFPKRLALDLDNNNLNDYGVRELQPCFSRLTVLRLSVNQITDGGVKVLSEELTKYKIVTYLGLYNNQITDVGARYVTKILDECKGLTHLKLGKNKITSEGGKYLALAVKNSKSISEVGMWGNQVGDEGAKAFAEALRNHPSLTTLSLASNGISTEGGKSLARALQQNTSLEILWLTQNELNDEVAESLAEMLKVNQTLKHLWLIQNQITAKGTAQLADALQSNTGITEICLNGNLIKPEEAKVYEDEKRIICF
Glyceraldehyde-3-phosphate dehydrogenase, sequence (P04406 whole entry): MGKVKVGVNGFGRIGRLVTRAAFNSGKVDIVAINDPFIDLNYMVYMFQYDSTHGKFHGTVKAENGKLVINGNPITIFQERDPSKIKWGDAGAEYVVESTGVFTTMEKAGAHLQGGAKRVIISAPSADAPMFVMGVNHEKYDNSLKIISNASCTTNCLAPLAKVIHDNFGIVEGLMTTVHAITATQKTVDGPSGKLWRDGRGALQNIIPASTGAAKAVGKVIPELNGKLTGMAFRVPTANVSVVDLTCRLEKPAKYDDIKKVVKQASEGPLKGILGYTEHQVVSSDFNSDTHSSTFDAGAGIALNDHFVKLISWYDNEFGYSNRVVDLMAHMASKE
Intestinal-type alkaline phosphatase (Homo sapiens, UniProt P09923), sequence (P09923 whole entry): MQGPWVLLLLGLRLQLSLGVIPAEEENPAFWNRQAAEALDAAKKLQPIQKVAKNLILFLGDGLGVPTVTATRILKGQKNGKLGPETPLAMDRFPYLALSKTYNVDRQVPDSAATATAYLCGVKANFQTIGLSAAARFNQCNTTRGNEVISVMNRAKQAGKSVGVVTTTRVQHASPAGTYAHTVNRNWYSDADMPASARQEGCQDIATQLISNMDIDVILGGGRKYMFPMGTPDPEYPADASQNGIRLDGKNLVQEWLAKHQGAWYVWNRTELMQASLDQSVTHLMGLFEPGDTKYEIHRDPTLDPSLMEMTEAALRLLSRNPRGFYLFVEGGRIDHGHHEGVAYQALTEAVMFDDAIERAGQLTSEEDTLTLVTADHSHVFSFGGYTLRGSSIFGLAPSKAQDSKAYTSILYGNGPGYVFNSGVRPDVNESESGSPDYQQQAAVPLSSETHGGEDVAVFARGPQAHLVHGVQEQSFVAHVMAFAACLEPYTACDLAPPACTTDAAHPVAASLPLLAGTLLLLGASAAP
Dual specificity protein phosphatase 6, sequence (Q64346 whole entry): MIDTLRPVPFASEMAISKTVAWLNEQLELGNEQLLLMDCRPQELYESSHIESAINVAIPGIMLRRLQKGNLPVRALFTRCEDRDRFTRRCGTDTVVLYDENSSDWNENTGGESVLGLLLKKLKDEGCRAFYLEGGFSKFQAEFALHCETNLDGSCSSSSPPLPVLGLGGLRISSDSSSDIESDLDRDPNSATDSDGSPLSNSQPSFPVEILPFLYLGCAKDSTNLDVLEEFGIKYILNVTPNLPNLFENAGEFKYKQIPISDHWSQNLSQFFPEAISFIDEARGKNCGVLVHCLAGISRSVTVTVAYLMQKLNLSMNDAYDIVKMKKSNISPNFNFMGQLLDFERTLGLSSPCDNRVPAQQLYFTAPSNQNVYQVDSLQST

Cc1ccc(NC(=O)Cn2c(O)c(N=NC(=O)c3cc([N+](=O)[O-])ccc3O)c3ccccc32)cc1
active: IC50 [1] 12.9 µM | IC50 [2] 31 µM | IC50 [3] 6.94 µM

C[C@@H]1O[C@@H](O[C@H]2C[C@@H](O)[C@]3(CO)[C@H]4[C@H](O)C[C@]5(C)[C@@H](C6=CC(=O)OC6)CC[C@]5(O)[C@@H]4CC[C@]3(O)C2)[C@H](O)[C@H](O)[C@H]1O [OUABAIN]
active: IC50 (DLD-1 [4]) 0.0464 µM | IC50 (DLD-1 [5]) 0.0297 µM | IC50 (Vero [7]) < 0.05 µM | EC50 [8] < 0.1 µM | CC50 (Vero [9]) 0.16 µM | EC50 [10] < 0.1 µM | EC50 [11] < 0.1 µM | CC50 (Vero [12]) 0.13 µM
> 39.8 µM (not active): IC50 [6]

S=C(NCCC(c1ccccc1)c1ccccc1)Nc1ccc(Cl)cc1
active: IC50 [15] 9.61 µM
inactive: IC50 [13] > 100 µM | IC50 [14] > 100 µM

COc1ccc(-c2cc(N)n(S(=O)(=O)c3ccc(Cl)cc3)n2)cc1OC
> 100 µM (not active): IC50 [16] | IC50 (Bcl-2-related protein A1 [17]) | IC50 (Bcl-2-related protein A1 [19])
inactive: IC50 (Tumor necrosis factor) > 20 µM | IC50 [18] > 20 µM | IC50 (HEK293) > 20 µM | IC50 [20] > 20 µM
